Ten molecules from US4038404A, “1,2,4-Triazole antimycotic compositions and use thereof” (Bayer Aktiengesellschaft, priority 1972, dated 1977) can be followed below.

Converted amounts (≈) assume the structure as drawn. Read-outs that look alike come from different tables or passages of the source.

Assay [1] concerns Trichophyton mentagrophytes. As to the kind of experiment: Series dilution test in vitro, Trichophyton mentagrophytes. It counts as cell-based. The note with it: for MIC: Trichophyton mentagrophytes, read-out: Minimum inhibitory concentration (MIC). How it is done: (§1) 1. DETERMINATION OF THE ANTI-MYCOTIC ACTION SPECTRUM IN VITRO BY THE SERIES DILUTION TEST.
(§2) Description of the Experiment
(§3) The nutrient substrates used were Sabourauds' milieu d'epreuve for dermatophytes and mould fungi and meat broth-glucose bouillon for blastomyces and biphase fungi. The incubation temperature was 28° C. and the incubation time was 24 to 96 hours.

The subject of assay [2] is Candida albicans. Kind of assay: Series dilution test in vitro, Candida albicans. It counts as cell-based. How it is done: as §1, §2, §3
The test system of assay [3] is Penicillium commune. As to the kind of experiment: Series dilution test in vitro, Penicillium commune. It counts as cell-based. The following applies: read-out: Minimum inhibitory concentration (MIC). Here is the method:
as §1, §2, §3

The subject of assay [4] is Trichophyton mentagrophytes. Kind of assay: Oral administration on Quinckeanum trichophytosis of white mice. Format: in vivo. Set-up: key to the marks not given beside the values. The note with it: 100 mg/kg orally twice daily up to the eighth day of the infection. Here is the method:
b. Action, on Oral Administration, on Quinckeanum Trichophytosis of White Mice
It was possible to suppress the development of the Quinckeanum infection in mice with doses of 100 mg/kg of body weight given orally twice daily up to the eighth day of the infection.

For assay [5], the system named is Candida albicans. As to the kind of experiment: Candidosis of mice. Format: in vivo, Mice of Type SPF-CF1. The following applies: 2 × 100 mg/kg orally, one hour before and seven hours after infection, survivors on 6th day. How it is done:
as §2
Mice of Type SPF-CF1 were intravenously infected with 1-2 × 10^6 logarithmically growing Candida cells suspended in physiological sodium chloride solution.
One hour before and seven hours after infection the animals were treated orally with 2 × 100 mg of the preparations/kg of body weight.
Untreated animals died of the infection 3 to 6 days after infection. The survival rate on the 6th day after infection was about 5% in the case of untreated control animals.

In assay [6] the test system is Trichophyton mentagrophytes. Kind of assay: Topical application in experimental trichophytosis of guinea pigs. It counts as in vivo. Set-up: key to the marks not given beside the values. The following applies: 1% strength solution applied locally for 11 to 14 days.
Text: a. Topical Application in Experimental Trichophytosis of Guinea Pigs (Pathogen: Trichophyton metagrophytes)
as §2
A 1% strength solution of the active compounds in a dimethylsulphoxide/glycerine/water mixture (1:3:6) or in polyethylene glycol 400 was applied locally for 11 to 14 days after the trichophytosis had been produced experimentally.

Assay [7] has as its system Aspergillus niger. Kind of assay: Series dilution test in vitro, Aspergillus niger. It counts as cell-based. The following applies: for MIC: Aspergillus niger, read-out: Minimum inhibitory concentration (MIC). How it is done:
as §1, §2, §3

Assay [8] deals with Microsporon felineum. As to the kind of experiment: Series dilution test in vitro, Microsporon felineum. It counts as cell-based. The following applies: 28° C., 24 to 96 hours; read-out: Minimum inhibitory concentration (MIC). How it is done:
as §1, §2, §3

Setting [9] is: w.s. (with 30% serum added), 28° C., 24 to 96 hours.
Setting [10] is: n.s. (no serum added), 28° C., 24 to 96 hours.
[11] abbreviates: n.s. (no serum added), 28° C., 24 to 96 hours, read-out: Minimum inhibitory concentration (MIC).
[12] abbreviates: w.s. (with 30% serum added), 28° C., 24 to 96 hours, read-out: Minimum inhibitory concentration (MIC).
[13] abbreviates: n.s. (no serum added), * = 90% inhibition of growth.
The mark [14] stands for this setting: w.s. (with 30% serum added), * = 90% inhibition of growth.
The mark [15] stands for this setting: n.s. (no serum added), * = 90% inhibition of growth, read-out: Minimum inhibitory concentration (MIC).

Turning to `CC(C)(C)C(=O)C(Oc1ccc(Cl)cc1)n1cncn1` (stereo not shown) [Example 27], the MIC was 4 mg/L (≈ 13.6 µM) in assay [1]; 40 mg/L (≈ 136 µM) in assay [2] (read-out: Minimum inhibitory concentration (MIC), n.s. (no serum added), 28° C., 24 to 96 hours); 100 mg/L (≈ 340 µM) in assay [2] (read-out: Minimum inhibitory concentration (MIC), w.s. (with 30% serum added), 28° C., 24 to 96 hours); greater than 100 mg/L in assay [3]; 100 mg/L (≈ 340 µM) in assay [7]. The “Minimum inhibitory concentration (MIC)” value in assay [1] (setting [9]) was 4 mg/L (≈ 13.6 µM); in assay [7] (setting [9]), 100 mg/L (≈ 340 µM). For the same molecule, the “Oral action against Trichophyton quinckeanum” value in assay [4] is “++++”. The “Action against Candida albicans” value in assay [5] is recorded as “++++ (>80% survivors on the 6th day after infection)”. Besides, the “Action against Trichophyton mentagrophytes” value in assay [6] is “++”.
Consider `CC(C)(C)C(=O)C(Oc1cc(Cl)c(Cl)cc1Cl)n1cncn1` (stereo not shown) [Example 20], for which the MIC is 32 mg/L (≈ 88.2 µM) in assay [1] (setting [10]); greater than 64 mg/L in assay [1] (setting [9]); greater than 64 mg/L in assay [2] (setting [11]); greater than 64 mg/L in assay [3] (28° C., 24 to 96 hours).
Turning to `CC(C)(C)C(=O)C(Oc1ccc(F)cc1)n1cncn1` (stereo not shown) [Example 9], the MIC in assay [1] (setting [10]) is 8 mg/L (≈ 28.8 µM); in assay [1] (setting [9]), 32 mg/L (≈ 115 µM); in assay [2] (setting [11]), 100 mg/L (≈ 361 µM); in assay [2] (setting [12]) it was greater than 64 mg/L; in assay [3] (28° C., 24 to 96 hours), greater than 64 mg/L. In addition, the “Action against Candida albicans” value in assay [5] is recorded as “++ (60-80% survivors on the 6th day after infection)”.
`CC(C)(C)C(=O)C(Oc1ccc(Cl)cc1Cl)(c1ccccc1)n1cncn1` (stereo not shown) [Example 21]: the MIC is 8 mg/L (≈ 19.8 µM) in assay [1] (setting [10]); 64 mg/L (≈ 158 µM) in assay [1] (setting [9]); greater than 64 mg/L in assay [2] (setting [11]); greater than 64 mg/L in assay [2] (setting [12]); greater than 64 mg/L in assay [3] (28° C., 24 to 96 hours).
As to `CC(C)(C)C(=O)C(Oc1ccc(Cl)cc1)(c1ccccc1)n1cncn1` (stereo not shown) [Example 5, 1-[(4'-chlorophenoxy)]-1-[phenyl]-1-[1',2',4'triazolyl-(1')]-3,3-dimethyl-butan-2-one], the MIC was 1 mg/L (≈ 2.7 µM) in assay [1] (setting [13]); 32 mg/L (≈ 86.5 µM) in assay [1] (setting [14]); greater than 64 mg/L in assay [2] (setting [11]); greater than 64 mg/L in assay [3] (28° C., 24 to 96 hours); greater than 64 mg/L in assay [7] (setting [10]); greater than 64 mg/L in assay [7] (setting [9]). For the same molecule, the MIC in assay [8] was greater than 64 mg/L.
With `CC(C)(C)C(=O)C(Oc1ccc(Cl)cc1Cl)n1cncn1` (stereo not shown) [Example 1, 1-[(2',4'-dichloro)-phenoxy]-1-[1',2', 4'-triazolyl-(1')]-3,3-dimethyl-butan-2-one], the MIC was 4 mg/L (≈ 12.2 µM) in assay [1] (setting [10]); 4 mg/L (≈ 12.2 µM) in assay [1] (setting [9]); 40 mg/L (≈ 122 µM) in assay [2] (setting [11]); 40 mg/L (≈ 122 µM) in assay [2] (setting [12]); greater than 100 mg/L in assay [3] (28° C., 24 to 96 hours); 100 mg/L (≈ 305 µM) in assay [7] (setting [10]). Further, the MIC in assay [7] (setting [9]) and in assay [8] was 100 mg/L (≈ 305 µM) in each case. Besides, the “Action against Candida albicans” value in assay [5] was “+ (50% survivors on the 6th day after infection)”.
Take `Cc1ccc(OC(C(=O)C(C)(C)C)n2cncn2)cc1C` (stereo not shown) [Example 17]: the MIC was 32 mg/L (≈ 111 µM) in assay [1] (setting [10]); greater than 64 mg/L in assay [1] (setting [9]); 64 mg/L (≈ 223 µM) in assay [2] (setting [15]); greater than 64 mg/L in assay [2] (setting [12]); greater than 64 mg/L in assay [3] (28° C., 24 to 96 hours).
For the molecule `CC(C)(C)C(=O)C(Oc1ccc(-c2ccccc2)cc1)n1cncn1` (stereo not shown) [Example 12], the MIC is less than 1 mg/L in assay [1] (setting [10]); less than 1 mg/L in assay [1] (setting [9]); 100 mg/L (≈ 298 µM) in assay [2] (setting [15]); 100 mg/L (≈ 298 µM) in assay [2] (setting [12]); 100 mg/L (≈ 298 µM) in assay [3] (* = 90% inhibition of growth); 40 mg/L (≈ 119 µM) in assay [7] (setting [13]). The MIC in assay [7] (setting [9]) amounted to 100 mg/L (≈ 298 µM); in assay [8], 40 mg/L (≈ 119 µM). For the same molecule, the “Oral action against Trichophyton mentagrophytes” value in assay [4] is “++”. For the same molecule, the “Action against Candida albicans” value in assay [5] was “+ (50% survivors on the 6th day after infection)”. Besides, in assay [6], the “Action against Trichophyton mentagrophytes” value is listed as “++++”.
Consider `O=C(c1ccc(Cl)cc1)C(Oc1ccc(Cl)cc1Cl)n1cncn1` (stereo not shown) [Example 6], for which the MIC was 4 mg/L (≈ 10.5 µM) in assay [1] (setting [13]); 10 mg/L (≈ 26.1 µM) in assay [1] (setting [14]); 10 mg/L (≈ 26.1 µM) in assay [2] (setting [15]); 100 mg/L (≈ 261 µM) in assay [2] (w.s. (with 30% serum added), * = 90% inhibition of growth, read-out: Minimum inhibitory concentration (MIC)); greater than 100 mg/L in assay [3] (28° C., 24 to 96 hours); 100 mg/L (≈ 261 µM) in assay [7] (setting [10]). The MIC was greater than 100 mg/L in assay [7] (setting [9]) and 40 mg/L (≈ 105 µM) in assay [8]. In addition, in assay [5], the “Action against Candida albicans” value is recorded as “+ (50% survivors on the 6th day after infection)”.
Turning to `CC(C)(C)C(=O)C(Oc1ccccc1)n1cncn1` (stereo not shown) [Example 15], the MIC in assay [1] (setting [10]) is 32 mg/L (≈ 123 µM); in assay [1] (setting [9]), 32 mg/L (≈ 123 µM); in assay [2] (setting [11]), greater than 64 mg/L; in assay [3] (28° C., 24 to 96 hours), greater than 64 mg/L.
